Biological target: Platelet-activating factor receptor (Canis familiaris)
Experiment: ChEBML_158835
Method: Ability to inhibit platelet activating factor (PAF) binding to platelets by 50% was determined by using [3H]PAF as radioligand

| Structure (SMILES) | IC50 [nM] |
| --- | --- |
| CC(C)c1ccc2nc3ccc(C(=O)N[C@H](C)CCCc4cccnc4)cn3c(=O)c2c1 [2-Isopropyl-11-oxo-11H-pyrido[2,1-b]quinazoline-8-carboxylic acid (1-methyl-4-pyridin-3-yl-butyl)-amide] | 250 |
| CC(CCCc1cccnc1)NC(=O)c1ccc2nc3ccc(C(C)C)cc3c(=O)n2c1 (configuration not stated) | 400 |
| CC(C)c1ccc2nc3ccc(C(=O)N[C@@H](C)CCCc4cccnc4)cn3c(=O)c2c1 [2-Isopropyl-11-oxo-11H-pyrido[2,1-b]quinazoline-8-carboxylic acid (1-methyl-4-pyridin-3-yl-butyl)-amide] | 600 |

Biological target: not listed separately
Experiment: Ability to inhibit platelet activating factor (PAF) binding to platelets by 50% was determined by using [3H]PAF as radioligand

| Structure (SMILES) | IC50 [nM] |
| --- | --- |
| CC(C)c1ccc2nc3ccc(S(=O)(=O)NCCCCc4cccnc4)cn3c(=O)c2c1 [2-Isopropyl-11-oxo-11H-pyrido[2,1-b]quinazoline-8-sulfonic acid (4-pyridin-3-yl-butyl)-amide] | > 1000 |
| CC(C)c1ccc2nc3ccc(C(=O)NCCCCc4ccccn4)cn3c(=O)c2c1 | 5000 |
| CC(C)c1ccc2nc3ccc(C(=O)NC(C)(C)CCCc4cccnc4)cn3c(=O)c2c1 | 1200 |
| CC(C)c1ccc2nc3ccc(CNCCCCc4cccnc4)cn3c(=O)c2c1 [2-Isopropyl-8-[(4-pyridin-3-yl-butylamino)-methyl]-pyrido[2,1-b]quinazolin-11-one] | > 1000 |
| CC(C)c1ccc2nc3ccc(C(=O)NCCCCCCc4cncnc4)cn3c(=O)c2c1 [2-Isopropyl-11-oxo-11H-pyrido[2,1-b]quinazoline-8-carboxylic acid (6-pyrimidin-5-yl-hexyl)-amide] | 200 |
| Cc1cc2nc3ccc(C(=O)NCCCCCC[n+]4ccccc4)cn3c(=O)c2cc1C [1-{6-[(2,3-Dimethyl-11-oxo-11H-pyrido[2,1-b]quinazoline-8-carbonyl)-amino]-hexyl}-pyridinium] | > 1000 |
| Cc1cc2nc3ccc(C(=O)NCCCCc4ccc[n+](C)c4)cn3c(=O)c2cc1C [3-{4-[(2,3-Dimethyl-11-oxo-11H-pyrido[2,1-b]quinazoline-8-carbonyl)-amino]-butyl}-1-methyl-pyridinium] | > 1000 |
| CC(C)c1ccc2nc3ccc(C(=O)NCCCCn4ccnc4)cn3c(=O)c2c1 | 3500 |
| Cc1cc2nc3ccc(C(=O)NCCCCc4cncnc4)cn3c(=O)c2cc1C [2,3-Dimethyl-11-oxo-11H-pyrido[2,1-b]quinazoline-8-carboxylic acid (4-pyrimidin-5-yl-butyl)-amide] | 100 |
| CC(C)c1ccc2nc3ccc(CCCCCCc4cccnc4)cn3c(=O)c2c1 [2-Isopropyl-8-(6-pyridin-3-yl-hexyl)-pyrido[2,1-b]quinazolin-11-one] | > 1000 |
| Cc1cc2nc3ccc(C(=O)NCCCCc4cnc[n+](C)c4)cn3c(=O)c2cc1C [5-{4-[(2,3-Dimethyl-11-oxo-11H-pyrido[2,1-b]quinazoline-8-carbonyl)-amino]-butyl}-1-methyl-pyrimidin-1-ium] | > 1000 |

Other lines, results leading:

| IC50 [nM] | Structure (SMILES) |
| --- | --- |
| 450 | CC(C)c1ccc2nc3ccc(C(=O)NCCCCc4cncnc4)cn3c(=O)c2c1 |
| > 1000 | CC(C)c1ccc2nc3ccc(C(=O)NCCCc4cccnc4)cn3c(=O)c2c1 |
| 1300 | CC(C)c1ccc2nc3ccc(C(=O)NCCCCc4ccncc4)cn3c(=O)c2c1 |
| 400 | CC(C)c1ccc2nc3ccc(C(=O)NCCCCCCc4cccnc4)cn3c(=O)c2c1 |
| 600 | CC(C)Oc1ccc2nc3ccc(C(=O)NCCCCc4cccnc4)cn3c(=O)c2c1 |
| 250 | Cc1cc2nc3ccc(C(=O)NCCCCc4cccnc4)cn3c(=O)c2cc1C |
| > 1000 | CC(C)c1ccc2nc3ccc(C(=O)NCCCCCc4cccnc4)cn3c(=O)c2c1 |
| 1000 | COc1ccc2nc3ccc(C(=O)NCCCCc4cccnc4)cn3c(=O)c2c1 |
| > 1000 | CC(C)c1ccc2nc3ccc(C(=O)NCCCCCCCc4cccnc4)cn3c(=O)c2c1 |
| 2500 | CC(C)c1ccc2nc3ccc(C(=O)NCCc4cccnc4)cn3c(=O)c2c1 |
| 700 | O=C(NCCCCc1cccnc1)c1ccc2nc3ccc(Br)cc3c(=O)n2c1 |
| 370 | COc1ccc2c(=O)n3cc(C(=O)NCCCCc4cccnc4)ccc3nc2c1 |
| 350 | CC(C)c1ccc2nc3ccc(C(=O)NCCCCc4cccnc4)cn3c(=O)c2c1 |
| 1200 | O=C(NCCCCc1cccnc1)c1ccc2nc3ccc(O)cc3c(=O)n2c1 |
| 1800 | O=C(NCCCCc1cccnc1)c1ccc2nc3ccccc3c(=O)n2c1 |
| > 1000 | CC(C)c1ccc2nc3ccc(C(=O)OCCCCc4cccnc4)cn3c(=O)c2c1 [2-Isopropyl-11-oxo-11H-pyrido[2,1-b]quinazoline-8-carboxylic acid 4-pyridin-3-yl-butyl ester] |
| 500 | Cc1ccc2nc3ccc(C(=O)NCCCCc4cccnc4)cn3c(=O)c2c1 |
| 1000 | O=C(NCCCCc1cccnc1)c1ccc2nc3cc(Cl)ccc3c(=O)n2c1 |

Reference: BindingDB's records for doi:10.1021/jm00397a034 (Hoffmann-La Roche, 1988)
